Test results: publication PMC11536634, “Discovering a novel dual specificity tyrosine-phosphorylation-regulated kinase 1A (DYRK1A) inhibitor and its impact on tau phosphorylation and amyloid-β formation” (Journal of Enzyme Inhibition and Medicinal Chemistry, 2024)

Assays:
Assay type in all cases: biochemical
CDC-like kinase 2 (CLK2) = CDC-like kinase 2 (CLK2) (Homo sapiens, UniProt P49760); assay: kinase panel ([…] human kinases), […] inhibition at […]
[1] = target: cyclin-dependent kinase 2 (CDK2) (Homo sapiens, UniProt P24941); assay: kinase panel ([…] human kinases), […] inhibition at […]
[2] = target: fibroblast growth factor receptor 1 (FGFR1) (Homo sapiens, UniProt P11362); assay: kinase panel ([…] human kinases), […] inhibition at […]
fibroblast growth factor receptor 1 (FGFR1), sequence (P11362 22-822): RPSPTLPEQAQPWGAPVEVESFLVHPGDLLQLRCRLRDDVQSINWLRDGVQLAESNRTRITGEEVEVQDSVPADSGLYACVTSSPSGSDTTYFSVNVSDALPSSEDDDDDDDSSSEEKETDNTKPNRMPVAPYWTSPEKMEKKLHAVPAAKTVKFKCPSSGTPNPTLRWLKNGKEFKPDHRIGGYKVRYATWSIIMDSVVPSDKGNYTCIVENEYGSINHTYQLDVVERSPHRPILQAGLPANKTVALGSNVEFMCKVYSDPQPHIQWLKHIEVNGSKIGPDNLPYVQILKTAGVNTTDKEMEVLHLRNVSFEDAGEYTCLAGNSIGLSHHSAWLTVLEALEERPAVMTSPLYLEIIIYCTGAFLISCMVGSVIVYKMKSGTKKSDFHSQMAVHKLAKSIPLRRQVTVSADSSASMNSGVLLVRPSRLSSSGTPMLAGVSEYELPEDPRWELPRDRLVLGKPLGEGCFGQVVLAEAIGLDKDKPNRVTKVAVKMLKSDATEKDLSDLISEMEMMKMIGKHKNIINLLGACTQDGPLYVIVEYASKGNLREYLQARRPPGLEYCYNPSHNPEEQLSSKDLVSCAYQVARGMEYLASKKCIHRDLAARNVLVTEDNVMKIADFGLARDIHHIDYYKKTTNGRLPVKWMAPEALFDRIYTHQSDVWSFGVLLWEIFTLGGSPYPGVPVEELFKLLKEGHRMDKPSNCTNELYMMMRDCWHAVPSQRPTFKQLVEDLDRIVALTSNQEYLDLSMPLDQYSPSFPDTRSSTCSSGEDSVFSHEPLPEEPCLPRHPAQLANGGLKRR

DYRK1A = DYRK1A (Homo sapiens, UniProt Q13627); assay: cell-free Z'-LYTE FRET kinase assay, dose-response; ATP competition

CDC-like kinase 2 (CLK2), sequence (P49760 whole entry): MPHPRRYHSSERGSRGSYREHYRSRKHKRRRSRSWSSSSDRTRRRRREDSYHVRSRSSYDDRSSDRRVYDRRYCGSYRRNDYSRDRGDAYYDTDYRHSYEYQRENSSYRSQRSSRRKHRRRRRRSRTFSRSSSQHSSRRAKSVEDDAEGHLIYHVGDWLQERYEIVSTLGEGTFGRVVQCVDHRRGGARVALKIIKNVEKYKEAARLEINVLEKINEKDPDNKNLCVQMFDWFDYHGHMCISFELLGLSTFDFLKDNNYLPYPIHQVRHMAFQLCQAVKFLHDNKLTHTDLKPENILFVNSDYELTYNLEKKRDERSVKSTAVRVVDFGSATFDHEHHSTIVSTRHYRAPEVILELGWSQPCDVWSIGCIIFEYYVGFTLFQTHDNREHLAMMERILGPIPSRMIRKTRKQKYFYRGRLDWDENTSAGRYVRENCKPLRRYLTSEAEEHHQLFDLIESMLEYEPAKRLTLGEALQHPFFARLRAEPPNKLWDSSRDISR

With `O=C1CC(c2c[nH]c3nccnc23)NN1` (stereo not shown) [compound 217908, NSC217908] the “% inhibition at 3 μM” value (CDC-like kinase 2 (CLK2)) was 89, the “% inhibition at 3 μM” value [1] was 54 and the “% inhibition at 3 μM” value [2] was 69. For the same molecule, the IC50 (DYRK1A) was 949 nM.
